From publication PMC4197335, “Cancer-Selective Targeting of the NF-κB Survival Pathway with GADD45β/MKK7 Inhibitors” (Cancer Cell, 2014)
Where two headings read alike, the source gives them in different places. Values belong to the molecule of their own block, whether it stands above or below them. Where a SMILES comes first, the peptide text is derived from it. [ ]: non-standard residue; d: D form. The star is where a group is joined. Benzoyl(3-OH,4-OMe) = COc1ccc(C(=O)*)cc1O; ClZ = O=C(OCc1ccccc1Cl)*; Cbz = O=C(OCc1ccccc1)*

Biological target: T1, GADD45β/MKK7 complex (Homo sapiens, UniProt O14733)
T1 construct: Full-length human (h)MKK7 was expressed as a protein fused to an N-terminal GST tag (GST-MKK7); made in house
T1 sequence (O14733 1-419): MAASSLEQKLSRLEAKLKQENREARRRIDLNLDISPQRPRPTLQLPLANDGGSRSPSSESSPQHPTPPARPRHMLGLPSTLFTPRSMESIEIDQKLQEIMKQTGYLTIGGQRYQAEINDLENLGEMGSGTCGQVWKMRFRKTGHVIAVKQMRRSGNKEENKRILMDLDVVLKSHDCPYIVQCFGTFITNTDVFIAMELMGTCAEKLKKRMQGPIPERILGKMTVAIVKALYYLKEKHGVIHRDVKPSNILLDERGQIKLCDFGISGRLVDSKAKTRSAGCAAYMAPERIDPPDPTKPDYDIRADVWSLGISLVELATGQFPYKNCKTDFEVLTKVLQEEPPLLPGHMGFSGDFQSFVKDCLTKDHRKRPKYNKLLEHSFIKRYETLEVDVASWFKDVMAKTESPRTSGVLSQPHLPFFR
Assay: ELISA GADD45β/MKK7 competition assay
Assay type: binding
Description: Additional details are provided in Supplemental Experimental Procedures.
(1:1,000) and the HRP chromogenic substrate, o -phenylenediamine (OPD). GST -coated wells wer e […]
The ELISA competition screen used f or the isolation of antagonists of the GADD45β /MKK7 […]
The library deconvolution strategy used for this screen was described previously […]
General information about this type of screens can be found elsewhere […]
Values were expressed as the percentage of inhibition of His6-hGADD45β binding to GST-hMKK7 relative to the binding measured in the absence of […]
Dose-response, ELISA GADD45β /MKK7 competition assays were carried out under similar […]
As part of the SAR analysis and lead optimization process, where appropriate, competitors were tested at a concentration up to 100 nM. In order to determine their stability in biolog ical f luids , peptides were incubated at the concentration of 10 µM in […]
calculated using at least 7 concentrations of peptide and def ined as the mean concentration of peptide […]
the absence of competitor. W here indicated, values were expressed as the percentage of inhibition of His 6 -hGADD45β binding to GST-hMKK7 relative to the binding measured in the absence of competitor.
GST was used as a control in all the experiments. […]
tetrapeptide used as negative control in some of the ELISA and cellular assays was as f ollows: z -DNC, z-T yr -Asp-His-Gln-NH 2 . […]

[1] = Table S3, peptide at 10 nM, read-out: % inhibition (ELISA)
[2] = Table S3, read-out: IC50 (ELISA)
[3] = Table S4, values marked (#), peptide at 42 nM, read-out: % inhibition of (ELISA)
[4] = Figure 3A, before preincubation with human serum, read-out: IC50
[5] = Figure 3B, after a 48 hr preincubation with human serum, read-out: IC50
[6] = Table S2, peptide at 42 nM, read-out: % inhibition (ELISA)
[7] = Table S4, read-out: IC50s (ELISA)
[8] = Table S4, values marked (##), peptide at 10 nM, read-out: % inhibition of (ELISA)

Compound: COc1ccc(C(=O)N[C@H](Cc2ccc(O)cc2)C(=O)N[C@H](CC(=O)O)C(=O)N[C@H](Cc2c[nH]cn2)C(=O)N[C@H](Cc2ccccc2)C(N)=O)cc1O ({Benzoyl(3-OH,4-OMe)}-[dY][dD][dH][dF]-NH2)
- inhibition at 0.01 µM (read-out: % inhibition (ELISA)): 81%

Compound: COc1ccc(C(=O)N[C@H](Cc2ccc(O)cc2)C(=O)N[C@H](CC(=O)O)C(=O)N[C@H](Cc2c[nH]cn2)C(=O)N[C@H](CCC(N)=O)C(N)=O)cc1O ({Benzoyl(3-OH,4-OMe)}-[dY][dD][dH][dQ]-NH2)
- inhibition at 0.01 µM (read-out: % inhibition (ELISA)): 7%

Compound: COc1ccc(C(=O)N[C@H](Cc2ccc(O)cc2)C(=O)N[C@H](CCC(=O)O)C(=O)N[C@H](CCCNC(=N)N)C(=O)N[C@H](Cc2ccccc2)C(N)=O)cc1O ({Benzoyl(3-OH,4-OMe)}-[dY][dE][dR][dF]-NH2)
- inhibition at 0.01 µM (read-out: % inhibition (ELISA)): 86%

Compound: NC(=O)[C@@H](Cc1ccccc1)NC(=O)[C@@H](Cc1c[nH]cn1)NC(=O)[C@@H](CC(=O)O)NC(=O)[C@@H](Cc1ccc(O)cc1)NC(=O)OCc1ccccc1Cl [2CI-z-YDHF-NH2] (ClZ-[dY][dD][dH][dF]-NH2)
- inhibition at 0.01 µM [1]: 38%
- IC50 [2]: > 0.01 µM

Compound: NC(=O)CC[C@@H](NC(=O)[C@@H](Cc1c[nH]cn1)NC(=O)[C@@H](CC(=O)O)NC(=O)[C@@H](Cc1ccc(O)cc1)NC(=O)OCc1ccccc1Cl)C(N)=O [2CI-z-YDHQ-NH2] (ClZ-[dY][dD][dH][dQ]-NH2)
- inhibition at 0.01 µM [1]: 40%
- IC50 [2]: > 0.01 µM

Compound: N=C(N)NCCC[C@@H](NC(=O)[C@@H](CCC(=O)O)NC(=O)[C@@H](Cc1ccc(O)cc1)NC(=O)OCc1ccccc1Cl)C(=O)N[C@H](Cc1ccccc1)C(N)=O [2CI-z-YERF-NH2] (ClZ-[dY][dE][dR][dF]-NH2)
- inhibition at 0.01 µM [1]: 38%
- IC50 [2]: > 0.01 µM

Compound: CC(=O)NC(C)C(=O)NC(CCC(=O)O)C(=O)NC(CCCNC(=N)N)C(=O)NC(Cc1ccccc1)C(N)=O (centres unmarked) [Ac-AERF-NH2] (Ac-AERF-NH2; configuration not given here)
- inhibition at 0.042 µM [3]: 7%

Compound: CC(=O)N[C@H](Cc1ccc(O)cc1)C(=O)N[C@H](CC(=O)O)C(=O)N[C@H](Cc1c[nH]cn1)C(=O)N[C@H](Cc1ccccc1)C(N)=O [Ac-DTP1, Ac-Tyr-Asp-His-Phe-NH2]
- IC50 [4]: 0.00019 µM
- IC50 [5]: 0.0002 µM

Compound: CC(=O)N[C@H](Cc1ccc(O)cc1)C(=O)N[C@H](CCC(=O)O)C(=O)N[C@H](CCCNC(=N)N)C(=O)N[C@H](Cc1ccccc1)C(N)=O [Ac-DTP2, Ac-Tyr-Glu-Arg-Phe-NH2]
- IC50 [4]: 0.00022 µM
- IC50 [5]: 0.00022 µM

Compound: CC(=O)N[C@@H](Cc1ccc(O)cc1)C(=O)N[C@@H](CC(=O)O)C(=O)N[C@@H](Cc1c[nH]cn1)C(=O)N[C@@H](Cc1ccccc1)C(N)=O [Ac-LTP1, Ac-YDHF-NH2]
- IC50 [4]: 0.0004 µM
- IC50 [5]: > 0.01 µM
- inhibition at 0.042 µM [6]: 94%

Compound: CC(=O)N[C@@H](Cc1ccc(O)cc1)C(=O)N[C@@H](CCC(=O)O)C(=O)N[C@@H](CCCNC(=N)N)C(=O)N[C@@H](Cc1ccccc1)C(N)=O [Ac-LTP2, Ac-YERF-NH2]
- IC50 [5]: > 0.01 µM
- inhibition at 0.042 µM [6]: 93%
- IC50 [7]: 0.0004 µM

Compound: CC(=O)N1CCCC1C(=O)NC(CCC(=O)O)C(=O)NC(CCCNC(=N)N)C(=O)NC(Cc1ccccc1)C(N)=O (centres unmarked) [Ac-PERF-NH2] (Ac-PERF-NH2; configuration not given here)
- inhibition at 0.01 µM [8]: 24%

Compound: CC(=O)N[C@@H](Cc1c[nH]c2ccccc12)C(=O)N[C@@H](CC(=O)O)C(=O)N[C@@H](Cc1c[nH]cn1)C(=O)N[C@@H](Cc1ccccc1)C(N)=O [Ac-WDHF-NH2] (Ac-WDHF-NH2)
- inhibition at 0.042 µM [6]: 28%
- IC50 [7]: > 0.042 µM

Compound: CC(=O)N[C@@H](Cc1c[nH]c2ccccc12)C(=O)N[C@@H](CC(=O)O)C(=O)N[C@@H](CCCCN)C(=O)N[C@@H](Cc1ccccc1)C(N)=O [Ac-WDKF-NH2] (Ac-WDKF-NH2)
- inhibition at 0.042 µM [6]: 25%

Compound: CC(=O)N[C@@H](Cc1c[nH]c2ccccc12)C(=O)N[C@@H](CC(=O)O)C(=O)N[C@@H](CCCCN)C(=O)N[C@@H](Cc1c[nH]c2ccccc12)C(N)=O [Ac-WDKW-NH2] (Ac-WDKW-NH2)
- inhibition at 0.042 µM [6]: 69%
- IC50 [7]: < 0.042 µM

Compound: CC(=O)N[C@@H](Cc1c[nH]c2ccccc12)C(=O)N[C@@H](CCC(=O)O)C(=O)N[C@@H](Cc1c[nH]cn1)C(=O)N[C@@H](Cc1c[nH]c2ccccc12)C(N)=O [Ac-WEHW-NH2] (Ac-WEHW-NH2)
- inhibition at 0.042 µM [6]: 75%
- IC50 [7]: < 0.042 µM

Compound: CC(=O)N[C@@H](Cc1c[nH]c2ccccc12)C(=O)N[C@@H](CCC(=O)O)C(=O)N[C@@H](CCCCN)C(=O)N[C@@H](Cc1ccccc1)C(N)=O [Ac-WEKF-NH2] (Ac-WEKF-NH2)
- inhibition at 0.042 µM [6]: 65%
- IC50 [7]: < 0.042 µM

Compound: CC(=O)N[C@@H](Cc1c[nH]c2ccccc12)C(=O)N[C@@H](CCC(=O)O)C(=O)N[C@@H](CCCCN)C(=O)N[C@@H](Cc1c[nH]c2ccccc12)C(N)=O [Ac-WEKW-NH2] (Ac-WEKW-NH2)
- inhibition at 0.042 µM [6]: 58%
- IC50 [7]: < 0.042 µM

Compound: CC(=O)N[C@@H](Cc1c[nH]c2ccccc12)C(=O)N[C@@H](CCC(=O)O)C(=O)N[C@@H](CCCNC(=N)N)C(=O)N[C@@H](Cc1ccccc1)C(N)=O [Ac-WERF-NH2] (Ac-WERF-NH2)
- inhibition at 0.042 µM [6]: 28%
- IC50 [7]: > 0.042 µM

Compound: CC(=O)N[C@H](Cc1ccc(O)cc1)C(=O)N[C@H](C)C(=O)N[C@H](CCCNC(=N)N)C(=O)N[C@H](Cc1ccccc1)C(N)=O [Ac-YARF-NH2] (Ac-[dY][dA][dR][dF]-NH2)
- inhibition at 0.042 µM (read-out: % inhibition of (ELISA)): 17%

Second part, the molecule after the results:

- inhibition at 0.042 µM [6]: 64%
- IC50 [7]: < 0.042 µM
- inhibition at 0.042 µM [3]: 69%
Compound: CC(=O)N[C@@H](Cc1c[nH]c2ccccc12)C(=O)N[C@@H](CCC(=O)O)C(=O)N[C@@H](CCCNC(=N)N)C(=O)N[C@@H](Cc1c[nH]c2ccccc12)C(N)=O [Ac-WERW-NH2] (Ac-WERW-NH2)

- inhibition at 0.01 µM [1]: 8%
- IC50 [2]: > 0.01 µM
Compound: CC(=O)N[C@H](Cc1ccc(O)cc1)C(=O)N[C@H](CC(=O)O)C(=O)N[C@H](Cc1c[nH]cn1)C(=O)N[C@H](Cc1ccccc1)C(=O)N[C@H](CCCCNC(=O)OCc1ccccc1)C(N)=O [Ac-YDHFK(εZ)-NH2] (Ac-[dY][dD][dH][dF][dK](Cbz)-NH2)

- inhibition at 0.01 µM [1]: 2%
- IC50 [2]: > 0.01 µM
Compound: CC(=O)N[C@H](Cc1ccc(O)cc1)C(=O)N[C@H](CC(=O)O)C(=O)N[C@H](Cc1c[nH]cn1)C(=O)N[C@H](CCC(N)=O)C(=O)N[C@H](CCCCNC(=O)OCc1ccccc1)C(N)=O [Ac-YDHQK(εZ)-NH2] (Ac-[dY][dD][dH][dQ][dK](Cbz)-NH2)

- inhibition at 0.042 µM [6]: 43%
- IC50 [7]: > 0.01 µM
Compound: CC(=O)N[C@@H](Cc1ccc(O)cc1)C(=O)N[C@@H](CC(=O)O)C(=O)N[C@@H](CCCCN)C(=O)N[C@@H](Cc1c[nH]c2ccccc12)C(N)=O [Ac-YDKW-NH2] (Ac-YDKW-NH2)

- inhibition at 0.042 µM [3]: 13%
Compound: CC(=O)N[C@H](Cc1ccc(O)cc1)C(=O)N[C@H](CCC(=O)O)C(=O)N[C@H](C)C(=O)N[C@H](Cc1ccccc1)C(N)=O [Ac-YEAF-NH2] (Ac-[dY][dE][dA][dF]-NH2)

- inhibition at 0.042 µM [6]: 64%
- IC50 [7]: < 0.042 µM
Compound: CC(=O)N[C@@H](Cc1ccc(O)cc1)C(=O)N[C@@H](CCC(=O)O)C(=O)N[C@@H](Cc1c[nH]cn1)C(=O)N[C@@H](Cc1c[nH]c2ccccc12)C(N)=O [Ac-YEHW-NH2] (Ac-YEHW-NH2)

- inhibition at 0.042 µM [6]: 64%
- IC50 [7]: < 0.042 µM
Compound: CC(=O)N[C@@H](Cc1ccc(O)cc1)C(=O)N[C@@H](CCC(=O)O)C(=O)N[C@@H](CCCCN)C(=O)N[C@@H](Cc1ccccc1)C(N)=O [Ac-YEKF-NH2] (Ac-YEKF-NH2)

- inhibition at 0.042 µM [6]: 22%
- IC50 [7]: > 0.042 µM
Compound: CC(=O)N[C@@H](Cc1ccc(O)cc1)C(=O)N[C@@H](CCC(=O)O)C(=O)N[C@@H](CCCCN)C(=O)N[C@@H](Cc1c[nH]c2ccccc12)C(N)=O [Ac-YEKW-NH2] (Ac-YEKW-NH2)

- inhibition at 0.042 µM [3]: 13%
Compound: CC(=O)N[C@H](Cc1ccc(O)cc1)C(=O)N[C@H](CCC(=O)O)C(=O)N1CCC[C@@H]1C(=O)N[C@H](Cc1ccccc1)C(N)=O [Ac-YEPF-NH2] (Ac-[dY][dE][dP][dF]-NH2)

- inhibition at 0.01 µM [8]: 28%
Compound: CC(=O)N[C@H](Cc1ccc(O)cc1)C(=O)N[C@H](CCC(=O)O)C(=O)N[C@H](CCCNC(=N)N)C(=O)N[C@H](C)C(N)=O [Ac-YERA-NH2] (Ac-[dY][dE][dR][dA]-NH2)
